# According to patent US11814379B2, “Cyano quinoline amide compounds as HER2 inhibitors and methods of use” (DANA-FARBER CANCER INSTITUTE, INC., priority 2018, dated 2023):
# Assays:
# HER2 mutations = conditions: Phase I and II clinical data; cited from earlier work
# [1] = target: T1, HER2 insYVMA (A775_G776insYVMA) (Homo sapiens, UniProt P04626, INS775YVMA); conditions: afatinib as a single agent; dacomitinib phase II trial, 13 patients; cited from earlier work
# T1 construct: no response in all 13 patients with HER2 insYVMA (A775_G776insYVMA); host or cells: patients' tumours
# WT HER2 = WT HER2 (Homo sapiens, UniProt P04626); assay: Biochemical activities, WT HER2
# Ba/F3 cells WT HER2 [2] = target: T2, Ba/F3 cells WT HER2 (Homo sapiens, UniProt P04626); assay: Antiproliferative activities (MTS assay), Ba/F3 cells WT HER2; type: cell-based; conditions: Ba/F3 cells, 72 hours, MTS
# T2 construct: Antiproliferative Activities (Ba/F3 cells) WT HER2; other: Ba/F3 cells, 72 hours, MTS
# Method: (§1) Cell growth and growth inhibition were evaluated by […] (MTS) assay. A total of 3,000-4,000 cells were plated per well in 96-well plates and treated with each drug (at a dose range from 1 nM to 10 μM) for 3 days. Each experimental point was conducted in six replicates and all tests were repeated more than three times. IC50 data was obtained from a nonlinear regression model with sigmoidal dose response using GraphPad Prism (GraphPad Software, Inc.).
# (§2) All ERBB insertion mutations were generated by using the Quikchange II XL Site-Directed Mutagenesis Kit (Agilent Tech) according to the manufacturer's protocol. The insertion mutations and wildtype form of human EGFR and HER2 were transduced into Ba/F3 cells by retroviral infection followed by treatment of puromycin and withdrawal of interleukin-3 for selection. […] Wild-type EGFR Ba/F3 cells were cultured in the same media supplemented with EGF (10 ng/ml).
# (§3) Cell growth inhibition was assessed by MTS assay for Ba/F3 and H1781 cells. A total of 3,000-4,000 cells were seeded for per well in 96-well plates, and were exposed to representative compounds of the application (1 nM to 10 μM) for 72 hours. All experimental points included 6 wells. […] The growth curves were fitted using a nonlinear regression model with sigmoidal dose response.
# (§4) Activities of representative compounds of the present application in inhibiting HER2 were tested by MTS assay (for Ba/F3 cells and H1781 cells). For each assay, a total of 3,000-4,000 cells were seeded per well in 96-well plates and were exposed to indicated compounds with a concentration of […] for 72 hours.
# Ba/F3 cells WT HER2 [3] = assay: as above; type: cell-based, human; conditions: for EGFR EC50/HER2 EC50: Ba/F3 cells, ratio WT EGFR to WT HER2
# Method: as §1, §2, §3, §4
# [4] = system: Calu-3 (Her2 amplification); assay: Antiproliferative activities in lung cancer cells, Calu-3; type: cell-based; conditions: Homo sapiens
# Method: as §1
# [5] = system: DFCI429 (Her2 amplification); assay: Antiproliferative activities in lung cancer cells, DFCI429; type: cell-based
# Method: as §1
# Ba/F3 cells HER2 InsYVMA = Ba/F3 cells HER2 InsYVMA (Homo sapiens, UniProt P04626, DUP772-775, cells depend on it); assay: Antiproliferative activities (MTS assay), Ba/F3 cells HER2 InsYVMA; type: cell-based; conditions: 72 hours
# Method: as §1, §2, §3, §4
# H1781 (HER2 InsVC) = assay: Antiproliferative activities in lung cancer cells, H1781; type: cell-based; conditions: NCI-H1781
# Method: as §1
# All ERBB insertion mutations were generated by using the Quikchange II XL Site-Directed Mutagenesis Kit (Agilent Tech) according to the manufacturer's protocol. The insertion mutations and wildtype form of human EGFR and HER2 were transduced into Ba/F3 cells by retroviral infection followed by treatment of puromycin and withdrawal of interleukin-3 for selection. Transformed Ba/F3 cells and the NSCLC cell line H1781 (with HER2 insertion VC) were cultured in Roswell Park Memorial Institute-1640 medium (Gibco) with 10% fetal bovine serum and 1% penicillin/streptomycin (Gibco). Wild-type EGFR Ba/F3 cells were cultured in the same media supplemented with EGF (10 ng/ml).
# as §3, §4
# Ba/F3 cells WT EGFR = Ba/F3 cells WT EGFR (Homo sapiens, UniProt P00533); assay: Antiproliferative activities (MTS assay), Ba/F3 cells WT EGFR; type: cell-based; conditions: 72 hours
# Method: as §1, §2, §3, §4
# [6] = system: H1819 (Her2 amplification); assay: Antiproliferative activities in lung cancer cells, H1819; type: cell-based; conditions: NCI-H1819
# Method: as §1
# Ba/F3 cells HER2 InsGSP = Ba/F3 cells HER2 InsGSP (Homo sapiens, UniProt P04626, DUP778-780, cells depend on it); assay: Antiproliferative activities (MTS assay), Ba/F3 cells HER2 InsGSP; type: cell-based; conditions: 72 hours
# Method: as §1, §2, §3, §4
# Ba/F3 cells HER2 InsWLV = Ba/F3 cells HER2 InsWLV (Homo sapiens, UniProt P04626, DELINS774-774WLV, cells depend on it); assay: Antiproliferative activities (MTS assay), Ba/F3 cells HER2 InsWLV; type: cell-based; conditions: 72 hours
# Method: as §1, §2, §3, §4
# Ba/F3 cells HER2 InsVC = Ba/F3 cells HER2 InsVC (Homo sapiens, UniProt P04626, DELINS776-776VC, cells depend on it); assay: Antiproliferative activities (MTS assay), Ba/F3 cells HER2 InsVC; type: cell-based; conditions: 72 hours
# Method: as §1, §2, §3, §4
# WT EGFR = WT EGFR (Homo sapiens, UniProt P00533); assay: Biochemical activities, WT EGFR
# Sequence of WT EGFR (P00533 25-1210): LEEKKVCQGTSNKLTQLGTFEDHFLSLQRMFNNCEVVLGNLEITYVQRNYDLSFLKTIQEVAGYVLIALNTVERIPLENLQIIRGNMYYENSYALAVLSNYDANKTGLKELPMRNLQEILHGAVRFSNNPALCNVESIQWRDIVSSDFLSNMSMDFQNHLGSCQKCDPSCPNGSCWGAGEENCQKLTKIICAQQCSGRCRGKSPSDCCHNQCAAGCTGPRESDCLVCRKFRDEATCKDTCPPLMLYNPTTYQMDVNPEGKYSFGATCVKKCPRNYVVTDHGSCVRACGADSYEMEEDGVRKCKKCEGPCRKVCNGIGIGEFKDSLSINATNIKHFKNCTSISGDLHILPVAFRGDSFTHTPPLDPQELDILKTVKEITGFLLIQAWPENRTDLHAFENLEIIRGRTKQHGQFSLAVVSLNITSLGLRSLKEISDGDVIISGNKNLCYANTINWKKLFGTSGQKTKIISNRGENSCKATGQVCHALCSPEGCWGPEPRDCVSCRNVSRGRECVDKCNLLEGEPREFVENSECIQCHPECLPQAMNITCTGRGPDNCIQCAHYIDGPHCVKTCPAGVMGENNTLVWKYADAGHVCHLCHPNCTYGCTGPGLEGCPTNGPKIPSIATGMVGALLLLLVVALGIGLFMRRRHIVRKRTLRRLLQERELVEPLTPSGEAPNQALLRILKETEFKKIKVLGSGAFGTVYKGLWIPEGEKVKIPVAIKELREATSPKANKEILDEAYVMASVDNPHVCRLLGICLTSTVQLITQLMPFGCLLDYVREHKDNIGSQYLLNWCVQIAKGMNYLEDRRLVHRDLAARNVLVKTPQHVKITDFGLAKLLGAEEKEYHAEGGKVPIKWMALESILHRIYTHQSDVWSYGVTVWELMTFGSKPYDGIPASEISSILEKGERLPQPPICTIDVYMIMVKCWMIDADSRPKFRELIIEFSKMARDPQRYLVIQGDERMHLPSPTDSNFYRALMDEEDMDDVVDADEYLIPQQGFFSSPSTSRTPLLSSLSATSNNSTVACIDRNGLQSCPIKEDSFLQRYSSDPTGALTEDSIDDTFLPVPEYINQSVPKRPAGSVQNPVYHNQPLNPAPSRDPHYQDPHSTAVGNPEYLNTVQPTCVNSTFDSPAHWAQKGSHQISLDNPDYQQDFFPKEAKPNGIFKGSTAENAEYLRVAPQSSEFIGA
# Sequence of Ba/F3 cells WT EGFR (P00533 whole entry, change not shown): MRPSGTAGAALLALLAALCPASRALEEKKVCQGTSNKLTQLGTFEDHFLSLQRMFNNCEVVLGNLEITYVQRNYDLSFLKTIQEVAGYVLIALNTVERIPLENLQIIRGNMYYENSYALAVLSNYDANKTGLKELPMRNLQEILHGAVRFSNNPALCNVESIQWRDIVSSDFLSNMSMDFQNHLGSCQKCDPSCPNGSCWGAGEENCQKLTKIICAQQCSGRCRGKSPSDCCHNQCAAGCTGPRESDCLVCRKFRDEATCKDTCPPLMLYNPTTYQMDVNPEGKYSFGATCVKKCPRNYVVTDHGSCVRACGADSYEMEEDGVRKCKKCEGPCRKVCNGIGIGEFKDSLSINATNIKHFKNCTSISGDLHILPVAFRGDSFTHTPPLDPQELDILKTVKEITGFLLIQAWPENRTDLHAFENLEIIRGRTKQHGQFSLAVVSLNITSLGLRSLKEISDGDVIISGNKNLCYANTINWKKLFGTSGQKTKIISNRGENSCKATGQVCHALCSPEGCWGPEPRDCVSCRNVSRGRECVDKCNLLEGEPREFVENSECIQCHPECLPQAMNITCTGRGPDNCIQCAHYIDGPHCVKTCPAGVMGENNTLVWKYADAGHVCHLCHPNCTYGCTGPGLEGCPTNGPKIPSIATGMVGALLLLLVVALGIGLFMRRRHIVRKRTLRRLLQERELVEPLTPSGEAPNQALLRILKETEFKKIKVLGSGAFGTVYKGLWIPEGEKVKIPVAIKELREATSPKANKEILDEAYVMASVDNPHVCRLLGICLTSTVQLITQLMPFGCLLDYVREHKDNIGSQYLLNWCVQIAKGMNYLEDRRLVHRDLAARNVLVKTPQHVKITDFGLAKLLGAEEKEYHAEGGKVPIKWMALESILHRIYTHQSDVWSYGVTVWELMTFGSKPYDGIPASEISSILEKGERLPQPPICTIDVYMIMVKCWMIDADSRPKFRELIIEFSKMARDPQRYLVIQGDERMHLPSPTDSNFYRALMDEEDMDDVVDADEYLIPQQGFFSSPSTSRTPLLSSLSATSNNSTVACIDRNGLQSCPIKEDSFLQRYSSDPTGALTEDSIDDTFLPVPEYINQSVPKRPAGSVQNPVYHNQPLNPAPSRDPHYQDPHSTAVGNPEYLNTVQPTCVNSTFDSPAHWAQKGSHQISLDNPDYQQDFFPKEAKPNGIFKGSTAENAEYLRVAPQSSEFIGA
SMILES,EC50 (WT HER2) [nM],EC50 (Ba/F3 cells WT HER2 [2]) [nM],EGFR EC50/HER2 EC50 (Ba/F3 cells WT HER2 [3]),EC50 [4] [nM],EC50 [5] [nM],EC50 (Ba/F3 cells HER2 InsYVMA) [nM],EC50 (H1781 (HER2 InsVC)) [nM],EC50 (Ba/F3 cells WT EGFR) [nM],EC50 [6] [nM],EC50 (Ba/F3 cells HER2 InsGSP) [nM],EC50 (Ba/F3 cells HER2 InsWLV) [nM],EC50 (Ba/F3 cells HER2 InsVC) [nM],EC50 (WT EGFR) [nM],response to treatment of patients harboring HER2 mutations (HER2 mutations),response of patients with HER2 insYVMA [1],inhibition of HER2 and its mutant over EGFR (Ba/F3 cells WT HER2 [3]; FIG. 4 bar graph)
COc1cc2ncnc(Nc3ccc(F)c(Cl)c3)c2cc1NC(=O)/C=C/CN1CCCCC1 [dacomitinib],,,,,,,,,,,,,,partially responded,no response,
CCOc1cc2ncc(C#N)c(Nc3ccc(Oc4ccc5ccn(C)c5c4)c(C)c3)c2cc1NC(=O)/C=C/CN(C)C [Compound 6],,< 100,178,,,< 100,,> 500,,< 100,100 to 250,< 100,,,,
"Cc1cc(Nc2ncnc3ccc(NC4=NC(C)(C)CO4)cc23)ccc1Oc1ccn2ncnc2c1 [Irbinitinib, reference compound]",< 100,250 to 500,18,≥ 500,≥ 500,100 to 250,≥ 500,> 500,100 to 250,100 to 250,250 to 500,> 500,250 to 500,,,
CCOc1cc2ncc(C#N)c(Nc3ccc(Oc4ccn5ccnc5c4)c(C)c3)c2cc1NC(=O)/C=C/CN(C)C [Compound 4],,< 100,49,,,< 100,,> 500,,< 100,100 to 250,< 100,,,,
CN(C)C/C=C/C(=O)Nc1cc2c(Nc3ccc(F)c(Cl)c3)ncnc2cc1O[C@H]1CCOC1 [Afatinib],,,,100 to 250,100 to 250,,100 to 250,,< 100,,,,,partially responded,durable responses,

# Now from value to compound, other results behind:
EC50 (WT HER2) [nM],EC50 (Ba/F3 cells WT HER2 [2]) [nM],EGFR EC50/HER2 EC50 (Ba/F3 cells WT HER2 [3]),EC50 [4] [nM],EC50 [5] [nM],EC50 (Ba/F3 cells HER2 InsYVMA) [nM],EC50 (H1781 (HER2 InsVC)) [nM],EC50 (Ba/F3 cells WT EGFR) [nM],EC50 [6] [nM],EC50 (Ba/F3 cells HER2 InsGSP) [nM],EC50 (Ba/F3 cells HER2 InsWLV) [nM],EC50 (Ba/F3 cells HER2 InsVC) [nM],EC50 (WT EGFR) [nM],SMILES,response to treatment of patients harboring HER2 mutations (HER2 mutations),response of patients with HER2 insYVMA [1],inhibition of HER2 and its mutant over EGFR (Ba/F3 cells WT HER2 [3]; FIG. 4 bar graph)
< 100,< 100,32,< 100,100 to 250,< 100,100 to 250,250 to 500,< 100,< 100,< 100,< 100,100 to 250,"CCOc1cc2ncc(C#N)c(Nc3ccc(Oc4ccn5ncnc5c4)c(C)c3)c2cc1NC(=O)/C=C/CN(C)C [Compound 1, (E)-N-(4-((4-([1,2,4]triazolo[1,5-a]pyridin-7-yloxy)-3-methylphenyl)amino)-3-cyano-7-ethoxyquinolin-6-yl)-4-(dimethylamino)but-2-enamide]",,,selective inhibition
,< 100,6,,,< 100,,100 to 250,,< 100,100 to 250,< 100,,CCOc1cc2ncc(C#N)c(Nc3ccc(Oc4ccn5nccc5c4)c(C)c3)c2cc1NC(=O)/C=C/CN(C)C [Compound 5],,,
< 100,< 100,222,,,< 100,,> 500,,< 100,100 to 250,250 to 500,100 to 250,CCOc1cc2ncc(C#N)c(Nc3ccc(Oc4ccn5ncnc5c4)c(F)c3)c2cc1NC(=O)/C=C/CN(C)C [Compound 2],,,
,< 100,87,,,< 100,,250 to 500,,< 100,< 100,< 100,,CCOc1cc2ncc(C#N)c(Nc3ccc(Oc4ccn5ncnc5c4)c(Cl)c3)c2cc1NC(=O)/C=C/CN(C)C [Compound 3],,,
